Laboratory results as given in PMC5218480 (PLoS ONE, 2017).

Tested on: MV-4-11 cells
Experiment: Gene expression microarray analysis (Affymetrix PrimeView) and GSEA
Assay type: cell-based, human
Parameters: RFU PODN (11730768_x_at) / Fold change /veh PODN (11730768_x_at) / RFU LINC00158 (11744669_a_at) / Fold change /veh LINC00158 (11744669_a_at) / RFU DUSP10 (11751237_a_at) / Fold change /veh DUSP10 (11751237_a_at) / RFU ID3 (11757404_x_at) / Fold change /veh ID3 (11757404_x_at) / RFU PLEKHG5 (11737974_s_at) / Fold change /veh PLEKHG5 (11737974_s_at) / RFU LRRC4B (11730491_at) / Fold change /veh LRRC4B (11730491_at) / RFU GIMAP4 (11747438_a_at) / Fold change /veh GIMAP4 (11747438_a_at) / RFU KRT8 (11758183_x_at) / Fold change /veh KRT8 (11758183_x_at) / RFU CNN1 (11734310_a_at) / Fold change /veh CNN1 (11734310_a_at) / RFU VPS37D (11726825_at) / Fold change /veh VPS37D (11726825_at) / RFU C10orf10 (11716522_x_at) / Fold change /veh C10orf10 (11716522_x_at) / RFU KIR2DL2 /// KIR2DL4 /// KIR2DL5A /// KIR2DL5B /// KIR2DS1 /// KIR2DS2 /// KIR2DS3 /// KIR2DS4 /// KIR3DL3 /// KIR3DL3 /// KIR3DS1 (11738374_at) / Fold change /veh KIR2DL2 /// KIR2DL4 /// KIR2DL5A /// KIR2DL5B /// KIR2DS1 /// KIR2DS2 /// KIR2DS3 /// KIR2DS4 /// KIR3DL3 /// KIR3DL3 /// KIR3DS1 (11738374_at) / RFU C1QL1 (11718748_at) / Fold change /veh C1QL1 (11718748_at) / RFU TMPRSS4 (11747572_a_at) / Fold change /veh TMPRSS4 (11747572_a_at) / RFU HAMP (11756126_x_at) / Fold change /veh HAMP (11756126_x_at) / RFU RNFT2 (11725882_a_at) / Fold change /veh RNFT2 (11725882_a_at) / RFU NR4A2 (11747474_a_at) / Fold change /veh NR4A2 (11747474_a_at) / RFU ABCC12 (11746883_a_at) / Fold change /veh ABCC12 (11746883_a_at) / RFU TMEM136 (11760407_x_at) / Fold change /veh TMEM136 (11760407_x_at) / RFU CLDN22 /// WWC2 (11732394_at) / Fold change /veh CLDN22 /// WWC2 (11732394_at) / RFU HLA-DPB1 (11760878_x_at) / Fold change /veh HLA-DPB1 (11760878_x_at) / RFU SPINT1 (11716480_a_at) / Fold change /veh SPINT1 (11716480_a_at) / RFU GAP43 (11754022_s_at) / Fold change /veh GAP43 (11754022_s_at) / RFU A4GNT (11735810_at) / Fold change /veh A4GNT (11735810_at) / RFU PRB3 (11715151_x_at) / Fold change /veh PRB3 (11715151_x_at) / RFU TUBB4B (11761932_at) / Fold change /veh TUBB4B (11761932_at) / RFU CAPN14 (11732068_a_at) / Fold change /veh CAPN14 (11732068_a_at) / RFU TMCC2 (11721928_a_at) / Fold change /veh TMCC2 (11721928_a_at) / RFU IRGQ (11745062_a_at) / Fold change /veh IRGQ (11745062_a_at) / RFU FAM174B (11720279_a_at) / Fold change /veh FAM174B (11720279_a_at) / RFU TMPRSS4 (11748680_a_at) / Fold change /veh TMPRSS4 (11748680_a_at) / RFU FAM212B (11763350_a_at) / Fold change /veh FAM212B (11763350_a_at) / RFU PLEKHG5 (11743358_a_at) / Fold change /veh PLEKHG5 (11743358_a_at) / RFU ZSCAN30 (11745921_a_at) / Fold change /veh ZSCAN30 (11745921_a_at) / RFU CMKLR1 (11741424_a_at) / Fold change /veh CMKLR1 (11741424_a_at) / RFU LOC101060620 /// MAPK8IP1 (11723275_at) / Fold change /veh LOC101060620 /// MAPK8IP1 (11723275_at) / RFU SPTSSB (11747773_x_at) / Fold change /veh SPTSSB (11747773_x_at) / RFU PRSS12 (11739890_at) / Fold change /veh PRSS12 (11739890_at) / RFU BIN1 (11741810_x_at) / Fold change /veh BIN1 (11741810_x_at) / RFU WNT11 (11732464_a_at) / Fold change /veh WNT11 (11732464_a_at) / RFU C10orf10 (11716521_a_at) / Fold change /veh C10orf10 (11716521_a_at) / RFU C5orf56 (11738089_at) / Fold change /veh C5orf56 (11738089_at) / RFU CYB561 (11721691_x_at) / Fold change /veh CYB561 (11721691_x_at) / RFU ANKRD19P (11752326_a_at) / Fold change /veh ANKRD19P (11752326_a_at) / RFU OR2T12 /// OR2T33 /// OR2T8 (11738714_s_at) / Fold change /veh OR2T12 /// OR2T33 /// OR2T8 (11738714_s_at) / RFU VCAN (11748164_a_at) / Fold change /veh VCAN (11748164_a_at) / RFU JSRP1 (11732532_at) / Fold change /veh JSRP1 (11732532_at) / RFU KRTAP10-11 (11738290_x_at) / Fold change /veh KRTAP10-11 (11738290_x_at) / RFU MYO3A (11730013_a_at) / Fold change /veh MYO3A (11730013_a_at) / RFU EBF3 (11725865_a_at) / Fold change /veh EBF3 (11725865_a_at) / RFU CAMK2N1 (11719241_x_at) / Fold change /veh CAMK2N1 (11719241_x_at) / RFU C5orf56 (11738088_a_at) / Fold change /veh C5orf56 (11738088_a_at) / RFU OLFML3 (11715873_a_at) / Fold change /veh OLFML3 (11715873_a_at) / RFU LOC100653217 /// NTM (11731650_a_at) / Fold change /veh LOC100653217 /// NTM (11731650_a_at) / RFU MAPK11 (11762145_a_at) / Fold change /veh MAPK11 (11762145_a_at) / RFU FIZ1 (11724087_x_at) / Fold change /veh FIZ1 (11724087_x_at) / RFU OASL (11726364_x_at) / Fold change /veh OASL (11726364_x_at) / RFU SOX15 (11748057_x_at) / Fold change /veh SOX15 (11748057_x_at) / RFU CD79A (11719716_a_at) / Fold change /veh CD79A (11719716_a_at) / RFU HIST1H1D (11736915_at) / Fold change /veh HIST1H1D (11736915_at) / RFU CASKIN2 (11723855_a_at) / Fold change /veh CASKIN2 (11723855_a_at) / RFU LOC730098 (11760151_x_at) / Fold change /veh LOC730098 (11760151_x_at) / RFU OR4N2 (11742367_at) / Fold change /veh OR4N2 (11742367_at) / RFU PRRT2 (11749266_a_at) / Fold change /veh PRRT2 (11749266_a_at) / RFU SNX32 (11753110_a_at) / Fold change /veh SNX32 (11753110_a_at) / RFU CDHR5 (11726645_a_at) / Fold change /veh CDHR5 (11726645_a_at) / RFU RCAN1 (11760418_a_at) / Fold change /veh RCAN1 (11760418_a_at) / RFU FAM167A (11723789_a_at) / Fold change /veh FAM167A (11723789_a_at) / RFU FAM26E (11764081_at) / Fold change /veh FAM26E (11764081_at) / RFU ISYNA1 (11749810_s_at) / Fold change /veh ISYNA1 (11749810_s_at) / RFU ACY1 (11761880_at) / Fold change /veh ACY1 (11761880_at) / RFU 11764098_at / Fold change /veh 11764098_at / RFU SAMD14 (11745864_x_at) / Fold change /veh SAMD14 (11745864_x_at) / RFU NPB (11741838_a_at) / Fold change /veh NPB (11741838_a_at) / RFU TMPRSS6 (11731388_a_at) / Fold change /veh TMPRSS6 (11731388_a_at) / RFU KRTAP10-2 (11738614_at) / Fold change /veh KRTAP10-2 (11738614_at) / RFU ARHGAP8 /// PRR5-ARHGAP8 (11727945_x_at) / Fold change /veh ARHGAP8 /// PRR5-ARHGAP8 (11727945_x_at) / RFU KRTAP5-7 /// NADSYN1 (11734609_at) / Fold change /veh KRTAP5-7 /// NADSYN1 (11734609_at) / RFU RASL12 (11751679_a_at) / Fold change /veh RASL12 (11751679_a_at) / RFU CDKN2B (11736163_a_at) / Fold change /veh CDKN2B (11736163_a_at) / RFU PRF1 (11729649_at) / Fold change /veh PRF1 (11729649_at) / RFU, ZNF638 /// ZNF638-IT1 / Fold change vs veh, ZNF638 /// ZNF638-IT1 / RFU, PANK3 / Fold change vs veh, PANK3 / RFU, SH3YL1 / Fold change vs veh, SH3YL1 / RFU, ZEB2 / Fold change vs veh, ZEB2 / RFU, NRIP1 / Fold change vs veh, NRIP1 / RFU, PTTG1IP / Fold change vs veh, PTTG1IP / RFU, CAPN2 / Fold change vs veh, CAPN2 / RFU, MED14 / Fold change vs veh, MED14 / RFU, SNORA58 / Fold change vs veh, SNORA58 / RFU, C1orf63 / Fold change vs veh, C1orf63 / RFU, LRRFIP1 / Fold change vs veh, LRRFIP1 / RFU, NDUFAF7 / Fold change vs veh, NDUFAF7 / RFU, SLC12A2 / Fold change vs veh, SLC12A2 / RFU, IBTK / Fold change vs veh, IBTK / RFU, ESF1 / Fold change vs veh, ESF1 / Fold change vs veh, TMEM50B / RFU, TAOK1 / Fold change vs veh, TAOK1 / RFU, ACBD3 / Fold change vs veh, ACBD3 / RFU, TMA16 / Fold change vs veh, TMA16 / RFU, RWDD3 / Fold change vs veh, RWDD3 / RFU, BCAT1 / Fold change vs veh, BCAT1 / RFU, EDEM3 / Fold change vs veh, EDEM3 / RFU, TMEM33 / Fold change vs veh, TMEM33 / RFU, WDR75 / Fold change vs veh, WDR75 / RFU, AHCTF1 / Fold change vs veh, AHCTF1 / RFU, TFRC / Fold change vs veh, TFRC / RFU, ZDHHC17 / Fold change vs veh, ZDHHC17 / RFU, NOM1 / Fold change vs veh, NOM1 / RFU, ARL8B / Fold change vs veh, ARL8B / RFU, ZBTB11 / Fold change vs veh, ZBTB11 / RFU, TAMM41 / Fold change vs veh, TAMM41 / RFU, KIAA1704 /// LOC100996395 / Fold change vs veh, KIAA1704 /// LOC100996395 / RFU, ING1 / Fold change vs veh, ING1 / RFU, TRMT61B / Fold change vs veh, TRMT61B / RFU, FUBP3 / Fold change vs veh, FUBP3 / RFU, TP53 / Fold change vs veh, TP53 / RFU, TNKS2 / Fold change vs veh, TNKS2 / RFU, ZFP14 / Fold change vs veh, ZFP14 / RFU, ACTR2 / Fold change vs veh, ACTR2 / RFU, PPP3R1 / Fold change vs veh, PPP3R1 / RFU, PIK3R1 / Fold change vs veh, PIK3R1 / RFU, HNRNPA1 / Fold change vs veh, HNRNPA1 / RFU, RNF170 / Fold change vs veh, RNF170 / RFU, ZNF28 / Fold change vs veh, ZNF28 / RFU, RNGTT / Fold change vs veh, RNGTT / RFU, OGT / Fold change vs veh, OGT / RFU, BRD1 / Fold change vs veh, BRD1 / RFU, MARS / Fold change vs veh, MARS / RFU, ZNF655 / Fold change vs veh, ZNF655 / RFU, FAHD1 / Fold change vs veh, FAHD1 / RFU, BDP1 / Fold change vs veh, BDP1 / RFU, LRRCC1 / Fold change vs veh, LRRCC1 / RFU, ARID1A / Fold change vs veh, ARID1A / RFU, ZNF146 / Fold change vs veh, ZNF146 / RFU, ZNF330 / Fold change vs veh, ZNF330 / RFU, GPN3 / Fold change vs veh, GPN3 / RFU, C9orf123 / Fold change vs veh, C9orf123 / RFU, N4BP2L2 / Fold change vs veh, N4BP2L2 / RFU, ARFIP1 / Fold change vs veh, ARFIP1 / RFU, FAM179B / Fold change vs veh, FAM179B / RFU, BCL10 / Fold change vs veh, BCL10 / RFU, UHRF1BP1L / Fold change vs veh, UHRF1BP1L / RFU, BET1 / Fold change vs veh, BET1 / RFU, CNOT2 / Fold change vs veh, CNOT2 / RFU, ZNF268 / Fold change vs veh, ZNF268 / Fold change vs veh, ZNF507 / RFU, DGCR2 / Fold change vs veh, DGCR2 / RFU, WDSUB1 / Fold change vs veh, WDSUB1 / Fold change vs veh, HSP90B1 /// MIR3652 / RFU, ADSS / Fold change vs veh, ADSS / RFU, GK / Fold change vs veh, GK / RFU, ZNF148 / Fold change vs veh, ZNF148 / RFU, TAF9 / Fold change vs veh, TAF9 / RFU, SLC1A5 / Fold change vs veh, SLC1A5 / RFU, SLMO2 / Fold change vs veh, SLMO2 / RFU, ABCC4 / Fold change vs veh, ABCC4 / RFU, LOC101060439 /// RAP1B / Fold change vs veh, LOC101060439 /// RAP1B / RFU, RFX7 / Fold change vs veh, RFX7 / RFU, GTPBP10 / Fold change vs veh, GTPBP10 / RFU, CNEP1R1 / Fold change vs veh, CNEP1R1 / RFU, BIVM-ERCC5 /// ERCC5 / Fold change vs veh, BIVM-ERCC5 /// ERCC5 / RFU, ILF3 / Fold change vs veh, ILF3 / RFU 11762660_at / Fold change /veh 11762660_at / RFU VCAN (11757783_s_at) / Fold change /veh VCAN (11757783_s_at) / RFU DDX43 (11728927_at) / Fold change /veh DDX43 (11728927_at) / RFU KRT8 (11758188_x_at) / Fold change /veh KRT8 (11758188_x_at) / RFU NKD1 (11759106_at) / Fold change /veh NKD1 (11759106_at) / RFU SRD5A1 (11742802_a_at) / Fold change /veh SRD5A1 (11742802_a_at) / RFU TPSAB1 /// TPSB2 (11721975_s_at) / Fold change /veh TPSAB1 /// TPSB2 (11721975_s_at) / RFU GSTM3 (11746129_a_at) / Fold change /veh GSTM3 (11746129_a_at) / RFU IL23R (11737362_x_at) / Fold change /veh IL23R (11737362_x_at) / RFU TMEM51 (11727254_a_at) / Fold change /veh TMEM51 (11727254_a_at) / RFU PIWIL2 (11732686_x_at) / Fold change /veh PIWIL2 (11732686_x_at) / RFU ORM1 (11744905_x_at) / Fold change /veh ORM1 (11744905_x_at) / RFU CCDC152 (11743942_at) / Fold change /veh CCDC152 (11743942_at) / RFU ECM1 (11717891_a_at) / Fold change /veh ECM1 (11717891_a_at) / RFU IL23R (11748794_a_at) / Fold change /veh IL23R (11748794_a_at) / RFU TNFAIP8L3 (11732012_x_at) / Fold change /veh TNFAIP8L3 (11732012_x_at) / RFU MBOAT4 (11741988_at) / Fold change /veh MBOAT4 (11741988_at) / RFU 11764193_at / Fold change /veh 11764193_at / RFU TMEM53 (11763286_at) / Fold change /veh TMEM53 (11763286_at) / RFU MAGEB2 (11727129_at) / Fold change /veh MAGEB2 (11727129_at) / RFU TMEM200A (11744735_a_at) / Fold change /veh TMEM200A (11744735_a_at) / RFU CCDC152 (11751479_a_at) / Fold change /veh CCDC152 (11751479_a_at) / RFU FAM211A (11726209_a_at) / Fold change /veh FAM211A (11726209_a_at) / RFU RGS16 (11746705_a_at) / Fold change /veh RGS16 (11746705_a_at) / RFU VCAN (11755009_s_at) / Fold change /veh VCAN (11755009_s_at) / RFU RHOB (11743442_s_at) / Fold change /veh RHOB (11743442_s_at) / RFU RGS16 (11720943_a_at) / Fold change /veh RGS16 (11720943_a_at) / RFU RGS16 (11720944_at) / Fold change /veh RGS16 (11720944_at) / RFU, VPS4B / Fold change vs veh, VPS4B / RFU, CREB1 / Fold change vs veh, CREB1 / RFU, DNAJC13 / Fold change vs veh, DNAJC13 / RFU, GNAQ / Fold change vs veh, GNAQ / RFU, CDK5R1 / Fold change vs veh, CDK5R1 / RFU, ZRANB3 / Fold change vs veh, ZRANB3 / RFU, CUL4A / Fold change vs veh, CUL4A / RFU, CCNY / Fold change vs veh, CCNY / RFU, UFL1 / Fold change vs veh, UFL1 / RFU, COG3 / Fold change vs veh, COG3 / RFU, DIAPH2 / Fold change vs veh, DIAPH2 / RFU, SKA2 / Fold change vs veh, SKA2 / RFU, AFF3 / Fold change vs veh, AFF3 / RFU, LMF1 / Fold change vs veh, LMF1 / RFU, IPO11 / Fold change vs veh, IPO11 / RFU, DFFB / Fold change vs veh, DFFB / RFU, FOXP1 / Fold change vs veh, FOXP1 / RFU, CARD8 / Fold change vs veh, CARD8 / RFU, STRN3 / Fold change vs veh, STRN3 / RFU, ADK / Fold change vs veh, ADK / RFU, RASSF2 / Fold change vs veh, RASSF2 / RFU, WIPF1 / Fold change vs veh, WIPF1 / RFU, LARP1B / Fold change vs veh, LARP1B / RFU, RASA1 / Fold change vs veh, RASA1 / RFU, RB1 / Fold change vs veh, RB1 / RFU, PPFIA1 / Fold change vs veh, PPFIA1 / RFU, MAT2A / Fold change vs veh, MAT2A / RFU, CCT5 / Fold change vs veh, CCT5 / RFU, WDR92 / Fold change vs veh, WDR92 / RFU, CUX1 / Fold change vs veh, CUX1 / RFU, TTC7A / Fold change vs veh, TTC7A / RFU, TMEM135 / Fold change vs veh, TMEM135 / RFU, DEPTOR / Fold change vs veh, DEPTOR / RFU, CPM / Fold change vs veh, CPM / RFU, DNAJB6 / Fold change vs veh, DNAJB6 / RFU, CACNA2D3 / Fold change vs veh, CACNA2D3 / RFU, DTX4 / Fold change vs veh, DTX4 / RFU, TFCP2 / Fold change vs veh, TFCP2 / RFU, GMCL1 /// GMCL1P1 / Fold change vs veh, GMCL1 /// GMCL1P1 / RFU, AEBP2 / Fold change vs veh, AEBP2 / RFU, SNHG1 /// SNORD22 /// SNORD25 /// SNORD26 /// SNORD27 /// SNORD28 /// SNORD29 /// SNORD31 / Fold change vs veh, SNHG1 /// SNORD22 /// SNORD25 /// SNORD26 /// SNORD27 /// SNORD28 /// SNORD29 /// SNORD31 / Fold change (Aza/veh), C12orf56 (ProbeSet 11735607_a_at) / Fold change (ACY-1035/veh), C12orf56 (ProbeSet 11735607_a_at) / Fold change (Aza/veh), FGFR1OP (ProbeSet 11751329_s_at) / Fold change (ACY-1035/veh), FGFR1OP (ProbeSet 11751329_s_at) / Fold change (Aza/veh), VPS36 (ProbeSet 11739960_a_at) / Fold change (ACY-1035/veh), VPS36 (ProbeSet 11739960_a_at) / RFU SYPL1 (11715823_x_at) / Fold change /veh SYPL1 (11715823_x_at) / RFU IGFBP7 (11715501_s_at) / Fold change /veh IGFBP7 (11715501_s_at) / RFU REEP3 (11722064_at) / Fold change /veh REEP3 (11722064_at) / RFU IGLL1 (11728026_x_at) / Fold change /veh IGLL1 (11728026_x_at): dose or concentration left out as unconfirmed
Conditions: ProbeSet 11739696_s_at; LIST D

Nc1ccc(-c2cccs2)cc1NC(=O)c1ccc2c(c1)cc(C1CC1)n2CCN1CCOCC1 [ACY-1035]
Fold change vs veh, AFF3: 1.00
